Source: patent publication US9382257B2, “Substituted pyrrolo[2,3-b]pyrazines as serine/threonine kinase inhibitors” (Genentech, Inc., priority 2002, dated 2016)

Experiments:
[1] = test system: PMA-stimulated P90RSK(Ser380) phosphorylation in HepG2 cells; assay: Cellular P90RSK(Ser380) Phosphorylation Assay (Example 4); assay type: cell-based; conditions: Homo sapiens, 1.5 hour compound incubation, PMA 100 ng/mL, normalized to GAPDH, read-out: RSK Inhibition IC50
Method: Cellular P90RSK(Ser380) Phosphorylation Assay
Inhibition of PMA-stimulated P90RSK(Ser380) phosphorylation was determined by the following in vitro cellular mechanistic assay, which comprises incubating cells with a compound for 1.5 hours and quantifying fluorescent pP90RSK(Ser380) signal on fixed cells and normalizing to GAPDH signal.
Materials and Methods: HepG2 cells were obtained from ATCC and grown in DMEM supplemented with 10% fetal bovine serum. Cells were plated in 96-well plates at 35,000 cells/well and allowed to attach overnight at 37° C./5% CO2. Diluted compounds were then added at a final concentration of 0.5% DMSO. After 1.5 hour compound incubation, cells were stimulated with the addition of PMA (phorbol 12-myristate 13-acetate) at a final concentration of 100 ng/mL; the PMA stimulation was a 30-minute incubation at 37° C./5% CO2. After the 30-minute PMA stimulation, cells were washed with PBS and fixed in 3.7% formaldehyde in PBS at room temperature for 15-20 minutes. This was followed by another wash in PBS and then permeabilization in 100% MeOH at room temperature for 10-15 minutes. Following the permeabilization incubation, cells were washed in PBS/0.05% Tween-20, followed by a block in Odyssey blocking buffer (LI-COR Biosciences) for at least 1 hour. Antibodies to phosphorylated P90RSK(Ser380) (Cell Signaling #9335, rabbit monoclonal) and GAPDH (Fitzgerald 10R-G109a, mouse monoclonal) were added to the cells and incubated overnight at 4° C. pP90RSK(Ser380) antibody was used at a 1:250 dilution; GAPDH was used at a 1:10,000 dilution. After washing with PBS/0.05% Tween-20, the cells were incubated with fluorescently-labeled secondary antibodies (Anti-rabbit-Alexa Flour680, Invitrogen Cat#A21109; Anti-mouse-IRDye800CW, Rockland Inc. Cat#610-131-121) for 1 hour. Both secondary antibodies were used at a 1:1000 dilution. Cells were then washed and analyzed for fluorescence at both wavelengths using the Odyssey Infrared Imaging System (LI-COR Biosciences). Phosphorylated P90RSK(Ser380) signal was normalized to GAPDH signal. Representative date is in TABLE 2 (infra).

[2] = target: T1, human ERK-2 (Mitogen Activated Kinase 1) (Homo sapiens, UniProt P28482); assay: ERK-2 Enzymatic Assay (Example 2); assay type: biochemical; conditions: Omnia peptide S/T17, 25 μM ATP, read-out: ERK Inhibition IC50
T1 construct: n-terminal 6-His fusion protein in E. coli and corresponding to aa 8-360; 6-His (N); made in house; host or cells: E. coli
T1 sequence (P28482 8-360): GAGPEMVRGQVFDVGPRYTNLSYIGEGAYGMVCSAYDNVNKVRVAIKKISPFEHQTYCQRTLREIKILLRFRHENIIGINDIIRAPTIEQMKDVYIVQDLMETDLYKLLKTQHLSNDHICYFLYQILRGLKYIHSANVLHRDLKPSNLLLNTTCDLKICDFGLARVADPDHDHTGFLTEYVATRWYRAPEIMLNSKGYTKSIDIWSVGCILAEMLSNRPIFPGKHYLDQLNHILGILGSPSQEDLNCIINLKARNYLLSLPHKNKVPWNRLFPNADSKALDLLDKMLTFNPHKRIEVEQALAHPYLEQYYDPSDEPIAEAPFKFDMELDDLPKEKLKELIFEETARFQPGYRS
Method: Compounds were tested in an enzymatic assay using human ERK-2 (Mitogen Activated Kinase 1), recombinantly expressed as an n-terminal 6-His fusion protein in E. coli and corresponding to aa 8-360. The substrate used was the fluorescent Omnia peptide S/T17 (Invitrogen of Carlsbad, Calif.; Cat. KNZ1171C). Test compounds were diluted in DMSO in 3-fold serial dilutions at 100× final concentrations. […] The assay was run at ambient temperature in a white 384-well polypropylene plate (Nunc, Inc of Naperville, Ill.; Cat. 267462) collecting data every 50 seconds for approximately 30 minutes on an Envision plate reader (PerkinElmer, Inc. of Waltham, Mass.); Excitation 340 nm/Emission 495 nm. The data collected from each well was fit to a straight line and the resulting rates were used to calculate percent of control. Percent of control was plotted against compound concentration and IC50 values were determined using a four-parameter fit. Representative date is in TABLE 2 (infra).

| SMILES | IC50 [1] [nM] | IC50 [2] [nM] |
| --- | --- | --- |
| Cc1[nH]ncc1-c1cnc2[nH]cc(-c3cnn(Cc4ccc(F)cc4F)c3)c2n1 [I-1, 7-[1-(2,4-difluoro-benzyl)-1H-pyrazol-4-yl]-2-(5-methyl-1H-pyrazol-4-yl)-5H-pyrrolo[2,3-b]pyrazine] | 242 | 1.23 |
| Cc1[nH]ncc1-c1cnc2[nH]cc(-c3cnn(Cc4ccc(F)c(Cl)c4)c3)c2n1 [I-2, 7-[1-(3-chloro-4-fluoro-benzyl)-1H-pyrazol-4-yl]-2-(5-methyl-1H-pyrazol-4-yl)-5H-pyrrolo[2,3-b]pyrazine] | 276 | 2.36 |
| Fc1cccc(Cn2cc(-c3c[nH]c4ncc(-c5cn[nH]c5)nc34)cn2)c1 [I-3, 7-[1-(3-fluoro-benzyl)-1H-pyrazol-4-yl]-2-(1H-pyrazol-4-yl)-5H-pyrrolo[2,3-b]pyrazine] | 403 | 2.75 |
| Cc1[nH]ncc1-c1cnc2[nH]cc(-c3cnn(Cc4ccccc4C#N)c3)c2n1 [I-4, 2-{4-[2-(5-methyl-1H-pyrazol-4-yl)-5H-pyrrolo[2,3-b]pyrazin-7-yl]-pyrazol-1-ylmethyl}-benzonitrile] | 202 | 1.3 |
| Cc1[nH]ncc1-c1cnc2[nH]cc(-c3cnn(Cc4ccccc4[N+](=O)[O-])c3)c2n1 [I-5, 2-(5-methyl-1H-pyrazol-4-yl)-7-[1-(2-nitro-benzyl)-1H-pyrazol-4-yl]-5H-pyrrolo[2,3-b]pyrazine] | 97.2 | 1.5 |
| Cc1[nH]ncc1-c1cnc2[nH]cc(-c3cnn(Cc4c(F)cccc4Cl)c3)c2n1 [I-6, 7-[1-(2-chloro-6-fluoro-benzyl)-1H-pyrazol-4-yl]-2-(5-methyl-1H-pyrazol-4-yl)-5H-pyrrolo[2,3-b]pyrazine] | 214 | 1.84 |
| COc1ccc(Cn2cc(-c3c[nH]c4ncc(-c5cn[nH]c5C)nc34)cn2)cc1F [I-7, 7-[1-(3-fluoro-4-methoxy-benzyl)-1H-pyrazol-4-yl]-2-(5-methyl-1H-pyrazol-4-yl)-5H-pyrrolo[2,3-b]pyrazine] | 340 | 1.89 |
| Cc1[nH]ncc1-c1cnc2[nH]cc(-c3cnn(Cc4ccccc4OC(F)F)c3)c2n1 [I-8, 7-[1-(2-difluoromethoxy-benzyl)-1H-pyrazol-4-yl]-2-(5-methyl-1H-pyrazol-4-yl)-5H-pyrrolo[2,3-b]pyrazine] | 191 | 2.5 |
| Cc1[nH]ncc1-c1cnc2[nH]cc(-c3cnn([C@@H](C)c4ccccc4Cl)c3)c2n1 [I-9, 7-{1-[(S)-1-(2-chloro-phenyl)-ethyl]-1H-pyrazol-4-yl}-2-(5-methyl-1H-pyrazol-4-yl)-5H-pyrrolo[2,3-b]pyrazine] | 299 | 2.8 |
| Cc1n[nH]c(C)c1-c1cnc2[nH]cc(-c3cnn(Cc4cccc(F)c4)c3)c2n1 [I-10, 2-(3,5-dimethyl-1H-pyrazol-4-yl)-7-[1-(3-fluoro-benzyl)-1H-pyrazol-4-yl]-5H-pyrrolo[2,3-b]pyrazine] | 387 | 2.7 |
| Fc1cccc(Cn2cc(-c3c[nH]c4ncc(-c5ccncc5)nc34)cn2)c1 [I-11, 7-[1-(3-fluoro-benzyl)-1H-pyrazol-4-yl]-2-pyridin-4-yl-5H-pyrrolo[2,3-b]pyrazine] | 501 | 2.77 |
| Cc1[nH]ncc1-c1cnc2[nH]cc(-c3cnn(Cc4cccc5cccnc45)c3)c2n1 [I-15, 8-{4-[2-(5-methyl-1H-pyrazol-4-yl)-5H-pyrrolo[2,3-b]pyrazin-7-yl]-pyrazol-1-ylmethyl}-quinoline] | 651 | 14 |
| Cc1n[nH]cc1-c1cnc2[nH]cc(-c3cnn(C(C)(C)c4ccccc4)c3)c2n1 [I-17, 7-[1-(1-methyl-1-phenyl-ethyl)-1H-pyrazol-4-yl]-2-(3-methyl-1H-pyrazol-4-yl)-5H-pyrrolo[2,3-b]pyrazine] | 2300 | 36 |
| Cc1n[nH]cc1-c1cnc2[nH]cc(-c3cnn(CCc4ccc(C(F)(F)F)cc4)c3)c2n1 [I-18, 2-(3-methyl-1H-pyrazol-4-yl)-7-{1-[2-(4-trifluoromethyl-phenyl)-ethyl]-1H-pyrazol-4-yl}-5H-pyrrolo[2,3-b]pyrazine] | ≥ 50000 | 44.4 |
| c1ccc(Cn2cc(-c3c[nH]c4ncc(-c5ccncc5)nc34)cn2)cc1 [I-21, 7-(1-benzyl-1H-pyrazol-4-yl)-2-(pyridin-4-yl)-5H-pyrrolo[2,3-b]pyrazine] | 1300 | 6.9 |
| Cc1[nH]ncc1-c1cnc2[nH]cc(-c3cnn(Cc4cc(F)ccc4Cl)c3)c2n1 [I-24, 7-[1-(2-chloro-5-fluoro-benzyl)-1H-pyrazol-4-yl]-2-(5-methyl-1H-pyrazol-4-yl)-5H-pyrrolo[2,3-b]pyrazine] | 371 | 2.02 |
| Cc1[nH]ncc1-c1cnc2[nH]cc(-c3cnn(C(C)c4ccccc4Cl)c3)c2n1 (stereo not drawn) [I-25, 7-{1-[1-(2-chloro-phenyl)-ethyl]-1H-pyrazol-4-yl}-2-(5-methyl-1H-pyrazol-4-yl)-5H-pyrrolo[2,3-b]pyrazine] | 200 | 2.2 |
| COc1cccc(F)c1Cn1cc(-c2c[nH]c3ncc(-c4cn[nH]c4C)nc23)cn1 [I-26] | 518 | 3.4 |
| Cc1[nH]ncc1-c1cnc2[nH]cc(-c3cnn(Cc4cc(F)ccc4C#N)c3)c2n1 [I-27, 4-fluoro-2-{4-[2-(5-methyl-1H-pyrazol-4-yl)-5H-pyrrolo[2,3-b]pyrazin-7-yl]-pyrazol-1-ylmethyl}-benzonitrile] | 2000 | 24.8 |
| Cc1[nH]ncc1-c1cnc2[nH]cc(-c3ccc(OCCN4CCOCC4)nc3)c2n1 [II-2, 2-(5-methyl-1H-pyrazol-4-yl)-7-[6-(2-morpholin-4-yl-ethoxy)-pyridin-3-yl]-5H-pyrrolo[2,3-b]pyrazine] | 5700 | 30.1 |
| O=C(NCc1cncc(-c2c[nH]c3ncc(-c4cn[nH]c4)nc23)c1)c1ccc(F)cc1 [II-3, 4-fluoro-N-{5-[2-(1H-pyrazol-4-yl)-5H-pyrrolo[2,3-b]pyrazin-7-yl]-pyridin-3-ylmethyl}-benzamide] | 1600 | – |
| Cc1cc(C(=O)NCc2cncc(-c3c[nH]c4ncc(-c5cn[nH]c5)nc34)c2)no1 [II-4] | 3700 | 198 |
| Cc1nc(C(=O)NCc2cncc(-c3c[nH]c4ncc(-c5cn[nH]c5)nc34)c2)c(C)o1 [II-5, 2,5-dimethyl-oxazole-4-carboxylic acid {5-[2-(1H-pyrazol-4-yl)-5H-pyrrolo[2,3-b]pyrazin-7-yl]-pyridin-3-ylmethyl}-amide] | ≥ 50000 | 218 |
| Cc1[nH]ncc1-c1cnc2[nH]cc(-c3ccc(NCc4ccccc4)nc3)c2n1 [II-7, benzyl-{5-[2-(5-methyl-1H-pyrazol-4-yl)-5H-pyrrolo[2,3-b]pyrazin-7-yl]-pyridin-2-yl}-amine] | 5700 | 29.9 |
| Cc1[nH]ncc1-c1cnc2[nH]cc(-c3ccc(OCC4CC4)nc3)c2n1 [II-8, 7-(6-cyclopropylmethoxy-pyridin-3-yl)-2-(5-methyl-1H-pyrazol-4-yl)-5H-pyrrolo[2,3-b]pyrazine] | 5900 | 46.7 |
| Cn1nccc1C(=O)NCc1cncc(-c2c[nH]c3ncc(-c4cn[nH]c4)nc23)c1 [II-9, 2-methyl-2H-pyrazole-3-carboxylic acid {5-[2-(1H-pyrazol-4-yl)-5H-pyrrolo[2,3-b]pyrazin-7-yl]-pyridin-3-ylmethyl}-amide] | ≥ 50000 | 144 |
